Test results taken from the supplement of paper PMC4862054.

What was measured:
Test in all cases: normalised viability (% of control), CellTiter-Blue; higher = more viable cells (about 100 = DMSO control)
[1] = system: CAL-51; conditions: 10 nM; incubation time: 72 h
Method: (§1)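 DSRT, CellTiter-Blue viability, 72 h incubation. Signal is normalised to DMSO and benzethonium chloride controls. Value is the normalised response at dose 3.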

[2] = system: MDA-MB-231; conditions: 100 nM; incubation time: 72 h
Method: as §1

[3] = system: CAL-120; conditions: 100 nM; incubation time: 72 h
Method: as §1

[4] = system: MDA-MB-436; conditions: 100 nM; incubation time: 72 h
Method: as §1

[5] = system: DU-4475; conditions: 10 nM; incubation time: 72 h
Method: as §1

[6] = system: HCC1937; conditions: 100 nM; incubation time: 72 h
Method: as §1

[7] = system: MDA-MB-453; conditions: 10 nM; incubation time: 72 h
Method: as §1

[8] = system: HCC1599; conditions: 100 nM; incubation time: 72 h
Method: as §1

[9] = system: MDA-MB-468; conditions: 100 nM; incubation time: 72 h
Method: as §1

[10] = system: CAL-85-1; conditions: 10 nM; incubation time: 72 h
Method: as §1

[11] = system: MFM-223; conditions: 100 nM; incubation time: 72 h
Method: as §1

[12] = system: HDQ-P1; conditions: 10 nM; incubation time: 72 h
Method: as §1

[13] = system: BT-549; conditions: 100 nM; incubation time: 72 h
Method: as §1

[14] = system: BT-474; conditions: 100 nM; incubation time: 72 h
Method: as §1

[15] = system: HCC1143; conditions: 100 nM; incubation time: 72 h
Method: as §1

[16] = system: SK-BR-3; conditions: 100 nM; incubation time: 72 h
Method: as §1

[17] = system: Hs578T; conditions: 100 nM; incubation time: 72 h
Method: as §1

[18] = system: CAL-148; conditions: 10 nM; incubation time: 72 h
Method: as §1

[19] = system: CAL-51; conditions: incubation time: 72 h
Outline: (§2)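 Normalised viability is given for a single listed concentration of the series. In 384-well plates, breast cancer cell lines were incubated 72 h with compound, then read with CellTiter-Blue (2 h, 37 °C) at 560/590 nm. Per-plate scaling set vehicle to 100 and a positive kill control to 0, with Z'-factor quality control.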

[20] = system: CAL-120; conditions: incubation time: 72 h
Outline: as §2

[21] = system: MDA-MB-436; conditions: incubation time: 72 h
Outline: as §2

[22] = system: DU-4475; conditions: incubation time: 72 h
Outline: as §2

[23] = system: HCC1937; conditions: incubation time: 72 h
Outline: as §2

[24] = system: HCC1599; conditions: incubation time: 72 h
Outline: as §2

[25] = system: MFM-223; conditions: incubation time: 72 h
Outline: as §2

[26] = system: HDQ-P1; conditions: incubation time: 72 h
Outline: as §2

[27] = system: BT-549; conditions: incubation time: 72 h
Outline: as §2

[28] = system: HCC1143; conditions: incubation time: 72 h
Outline: as §2

[29] = system: SK-BR-3; conditions: incubation time: 72 h
Outline: as §2

[30] = system: CAL-148; conditions: incubation time: 72 h
Outline: as §2

COc1cc(Nc2ncc(F)c(Nc3ccc4c(n3)NC(=O)C(C)(C)O4)n2)cc(OC)c1OC [R406]
Conditions | normalised viability [%]
[1] | 107
[2] | 102
[3] | 90.8
[4] | 96.1
[5] | 122
[6] | 125
[7] | 106
[8] | 102
[9] | 92.3
[10] | 90.2
[11] | 96.4
[12] | 107
[13] | 105
[14] | 116
[15] | 84.4
[16] | 95.7
[17] | 112
[18] | 91.2

normalised viability [%]
Conditions | 3 nM | 10 nM | 30 nM | 100 nM | 1000 nM | 10000 nM
[19] | 107 | – | 107 | 107 | – | –
[20] | – | 90.6 | – | – | 91.3 | 80.5
[21] | – | 84.3 | – | – | 102 | 101
[22] | 96.4 | – | 85.1 | 91.5 | – | –
[23] | – | 105 | – | – | 98.2 | 86
[24] | – | 105 | – | – | 112 | 104
[25] | – | 92.4 | – | – | 89.5 | 85.4
[26] | 111 | – | 93.7 | 99.5 | – | –
[27] | – | 89.7 | – | – | 77.3 | 53
[28] | – | 81.2 | – | – | 83.5 | 84.4
[29] | – | 104 | – | – | 98.3 | 112
[30] | 95.3 | – | 100 | 97.7 | – | –
